The values below come from PubChem BioAssay AID850 (SRMLSC, 2007).

The source made the active and inactive calls. The rule behind the calls is not given here.

The nature of assay [1]: concentration-response yeast growth inhibition under permissive conditions, counter-assay for yeast lifespan-shortening chemical project (AID 850).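 Note: growth read as optical density after one day of incubation.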 The following applies: Saccharomyces cerevisiae growth inhibition, permissive control, measured here: maximum growth inhibition, stronger effect = higher value.
Assay [2] deals with Saccharomyces cerevisiae growth inhibition, permissive control. Described as above.

`Cc1ccc(/C=C2\C(=O)NC(=S)N(c3ccccc3F)C2=O)s1`: the inhibition (usually the relative decrease from the control value, in per cent) in assay [1] (at 6.25 µM) was 29%. In assay [2], the IC50 (commonly the midpoint of a concentration-inhibition curve) was > 100 µM (inactive).
Regarding `C=CCc1c(C)c(C#N)c2nc3ccccc3n2c1NCCN(C)C`, in assay [1] (at 50 µM), the inhibition amounted to 98.6%. Besides, the IC50 in assay [2] was 12.5 µM.
As to `Nc1ccc(SC(F)(F)F)cc1C(=O)c1ccccc1`, in assay [1] (at 0.391 µM), the inhibition is 14.9%. Moreover, the IC50 in assay [2] was > 100 µM (inactive).
Take `CC1(C)C(C=C(Cl)Cl)C1C(=O)Nc1ccc([N+](=O)[O-])cc1` (stereo not drawn): in assay [1] (at 50 µM), the inhibition is 15.4%. Also, the IC50 in assay [2] is > 100 µM (inactive).
Regarding `Oc1c(N=Nc2ccccn2)ccc2ccccc12`, in assay [1] (at 25 µM), the inhibition amounted to 98.2%. In assay [2], the IC50 was 11.5 µM.
For the molecule `C/C(=N\Nc1ccc(Cl)c(Cl)c1)c1ccc(-n2ccnc2)cc1`, the inhibition in assay [1] (at 50 µM) was 96.7%. Also, the IC50 in assay [2] was 26.7 µM.
For the molecule `CCn1c(=O)c(C(=O)Nn2c(C)nc3ccccc3c2=O)c(O)c2ccccc21`, the inhibition in assay [1] (at 25 µM) is 99%. In assay [2], the IC50 is 13.4 µM.
On to `COc1ccc2c(c1)c1nnc(SC)nc1n2C`, for which, in assay [1] (at 50 µM), the inhibition was 63.9%. Moreover, in assay [2], the IC50 is 48.3 µM.
As to `Cc1ccc(/C=C/C(=O)c2ccccc(=O)c2O)c(C)c1`, in assay [1] (at 25 µM), the inhibition came to 101%. Besides, the IC50 in assay [2] is 6.08 µM.
Take `Oc1c(I)cc(Cl)c2cccnc12`: in assay [1] (at 50 µM), the inhibition worked out at 98%. Moreover, in assay [2], the IC50 is 16.7 µM.
For the molecule `COc1cc(/C=C2\C(=O)ON=C2c2ccccc2)cc(OC)c1OC`, in assay [1] (at 0.781 µM), the inhibition is -2.57%. In addition, the IC50 in assay [2] was > 100 µM (inactive).
As to `O=S(=O)(NC1CC2CCC1C2)c1ccc(Br)s1` (stereo not drawn), in assay [1] (at 12.5 µM), the inhibition amounted to 99%. The IC50 in assay [2] was 1.28 µM.
On to `O=[N+]([O-])c1ccc(N/N=C2/CCCCC2c2ccccn2)cc1` (stereo not drawn), for which, in assay [1] (at 50 µM), the inhibition was 98.4%. In assay [2], the IC50 is 1.94 µM.
The matching figures for `Cn1c(C(C#N)C(=O)c2ccco2)nc2ccccc21` (stereo not drawn): 17.5% and > 100 µM (inactive).
Regarding `Clc1ccc(COC(Cn2ccnc2)c2ccc(Cl)cc2Cl)c(Cl)c1` (stereo not drawn), the inhibition in assay [1] (at 50 µM) was found to be 101%. Further, the IC50 in assay [2] was less than 0.098 µM.
For `CCCCOc1ccc(C(=O)NNC(=S)NC(=O)CC)cc1` the same measures were 81.6% and 24.8 µM.
The matching figures for `Cc1cc(C(=O)COC(=O)c2ccc[nH]c2=O)c(C)n1-c1ccccc1`: 67.1% and 26.9 µM.
For `CCc1nc2ccccc2c(=O)n1NC(=O)c1c(O)c2cccc3c2n(c1=O)CCC3`, the inhibition in assay [1] (at 50 µM) was determined as 2.73%. For the same molecule, the IC50 in assay [2] is > 100 µM (inactive).
`O=C(OCn1ncc(Br)c(Br)c1=O)c1ccc(F)cc1`: the inhibition in assay [1] (at 12.5 µM) turned out to be 78.7%. Besides, the IC50 in assay [2] is 7.71 µM.
Regarding `Cc1cccc(N=C2Sc3nc4c(C)c(C)ccc4cc3CN2CCN2CCOCC2)c1`, the inhibition in assay [1] (at 50 µM) stood at 99%. The IC50 in assay [2] was 45.1 µM.
For `O=C(NC1CCCCC1)Sc1ccc(Cl)cc1` the same measures were 24.2% and > 100 µM (inactive).
The matching figures for `Cc1ccc(N=Cc2cccc(O)c2O)c(C)c1`: 99.4% and 16 µM.
For `CCc1cccc(C)c1NC(=S)NCCc1c(C)[nH]c2ccc(C)cc12` the same measures were 8.58% and > 100 µM (inactive).
With `CCCc1ccc(Oc2cn[nH]c2-c2ccc(O)c(C)c2O)cc1`, the inhibition in assay [1] (at 12.5 µM) is 101%. Further, the IC50 in assay [2] was 7.32 µM.
The matching figures for `COc1ccc(-c2cc(C(=O)N3CCN(c4ncccn4)CC3)c3ccccc3n2)c(OC)c1`: 23.4% and > 100 µM (inactive).
On to `CCN1/C(=C/C=C/C=C/c2sc3ccccc3[n+]2CC)Sc2ccccc21`, for which the inhibition in assay [1] (at 25 µM) is 87.5%. In addition, the IC50 in assay [2] is 11.3 µM.
With `CNC(=S)N/N=C(\C)c1ccc(N2CCOCC2)cc1`, the inhibition in assay [1] (at 0.195 µM) stood at 9.86%. Further, the IC50 in assay [2] is > 100 µM (inactive).
With `CN1CSC(=S)N(C)C1`, in assay [1] (at 50 µM), the inhibition is 97%. Besides, in assay [2], the IC50 is 12.6 µM.
Regarding `Cc1nn2c(-c3ccco3)nnc2c2ccccc12`, the inhibition in assay [1] (at 25 µM) stood at 14.3%. For the same molecule, the IC50 in assay [2] is > 100 µM (inactive).
